Target: T1, Human M4 (Homo sapiens, UniProt P08173)
T1 construct: expressed in transfected cells
T1 sequence (P08173 1-479): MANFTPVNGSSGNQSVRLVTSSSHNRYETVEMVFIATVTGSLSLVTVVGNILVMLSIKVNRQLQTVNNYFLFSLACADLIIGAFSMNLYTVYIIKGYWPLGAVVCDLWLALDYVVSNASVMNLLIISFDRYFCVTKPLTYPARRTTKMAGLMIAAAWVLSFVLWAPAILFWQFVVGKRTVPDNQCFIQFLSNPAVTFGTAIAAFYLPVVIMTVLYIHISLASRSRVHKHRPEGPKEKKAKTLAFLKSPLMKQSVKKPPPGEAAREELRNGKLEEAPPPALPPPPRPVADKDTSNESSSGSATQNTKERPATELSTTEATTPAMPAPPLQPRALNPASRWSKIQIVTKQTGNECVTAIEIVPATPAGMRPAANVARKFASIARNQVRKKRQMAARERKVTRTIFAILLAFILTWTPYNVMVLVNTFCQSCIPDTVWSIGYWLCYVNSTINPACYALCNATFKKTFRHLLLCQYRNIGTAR
Assay: mAChR M4 cell-based functional assay (calcium flux, potentiation of EC20 acetylcholine response), hM4-Gqi5 CHO-K1 cells
Settings: Table 3; for Emax at 30 µM: CHO-K1, Human M4, % ACh maximum at 30 μM, read-out: Emax (% ACh maximum at 30 μM); for EC50: potentiation of EC20 acetylcholine response, calcium flux, CHO-K1 cells, read-out: Human M4 EC50
Procedure, shortened: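 CHO-K1 cells stably expressing human M4 with chimeric Gqi5, loaded with Fluo-4 AM 50 min at 37 °C; calcium flux read by FDSS. 11-point 1:3 compound curves added, then EC20 acetylcholine at 144 s; potentiation of the EC20 response fitted by four-parameter logistic to give EC50 and Emax.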

SMILES | Emax at 30 µM [%] | EC50 [nM]
Cc1c(N2CCc3ncc(-c4ccc(N(C)C)nc4)cc3C2)nn2cnnc2c1C [Compound 180, 5-(6-(7,8-dimethyl-[1,2,4]triazolo[4,3-b]pyridazin-6-yl)-5,6,7,8-tetrahydro-1,6-naphthyridin-3-yl)-N,N-dimethylpyridin-2-amine] | 74 | 284
Cc1c(N2CCc3ncc(-c4cc(F)cnc4Cl)cc3C2)nn2cnnc2c1C [Compound 181, 3-(2-chloro-5-fluoropyridin-3-yl)-6-(7,8-dimethyl-[1,2,4]triazolo[4,3-b]pyridazin-6-yl)-5,6,7,8-tetrahydro-1,6-naphthyridine] | 95 | 539
CC(=O)c1cnc2c(c1)CN(c1nn3cnnc3c(C)c1C)CC2 [Compound 184, 1-(6-(7,8-dimethyl-[1,2,4]triazolo[4,3-b]pyridazin-6-yl)-5,6,7,8-tetrahydro-1,6-naphthyridin-3-yl)ethan-1-one] | 96 | 704
Cc1c(N2CCc3ncc(-c4ccc(N5CCCCC5)nc4)cc3C2)nn2cnnc2c1C [Compound 185, 6-(7,8-dimethyl-[1,2,4]triazolo[4,3-b]pyridazin-6-yl)-3-(6-(piperidin-1-yl)pyridin-3-yl)-5,6,7,8-tetrahydro-1,6-naphthyridine] | 86 | 333
Cc1c(N2CCc3ncc(-c4ccc(N5CCN(C)CC5)nc4)cc3C2)nn2cnnc2c1C [Compound 187, 6-(7,8-dimethyl-[1,2,4]triazolo[4,3-b]pyridazin-6-yl)-3-(6-(4-methylpiperazin-1-yl)pyridin-3-yl)-5,6,7,8-tetrahydro-1,6-naphthyridine] | 104 | 63
Cc1c(N2CCc3ncc(C(F)F)cc3C2)nn2cnnc2c1C [Compound 189, 3-(difluoromethyl)-6-(7,8-dimethyl-[1,2,4]triazolo[4,3-b]pyridazin-6-yl)-5,6,7,8-tetrahydro-1,6-naphthyridine] | 103 | 90
Cc1cc2nncn2nc1N1CCc2ncc(Nc3ccnn3C)cc2C1 [Compound 190, N-(1-methyl-1H-pyrazol-5-yl)-6-(7-methyl-[1,2,4]triazolo[4,3-b]pyridazin-6-yl)-5,6,7,8-tetrahydro-1,6-naphthyridin-3-amine] | 102 | 234
Cc1c(N2CCc3ncc(-c4ccc(-n5cccn5)nc4)cc3C2)nn2cnnc2c1C [Compound 191, 3-(6-(1H-pyrazol-1-yl)pyridin-3-yl)-6-(7,8-dimethyl-[1,2,4]triazolo[4,3-b]pyridazin-6-yl)-5,6,7,8-tetrahydro-1,6-naphthyridine] | 66 | 342
Cc1c(N2CCc3ncc(-c4ccc(-n5ccnc5)nc4)cc3C2)nn2cnnc2c1C [Compound 192, 3-(6-(1H-imidazol-1-yl)pyridin-3-yl)-6-(7,8-dimethyl-[1,2,4]triazolo[4,3-b]pyridazin-6-yl)-5,6,7,8-tetrahydro-1,6-naphthyridine] | 72 | 281
Cc1cc2nncn2nc1N1CCc2ncc(-c3ccc(C(F)(F)F)nc3)cc2C1 [Compound 196, 6-(7-methyl-[1,2,4]triazolo[4,3-b]pyridazin-6-yl)-3-(6-(trifluoromethyl)pyridin-3-yl)-5,6,7,8-tetrahydro-1,6-naphthyridine] | 80 | 708
Cc1cc2nncn2nc1N1CCc2ncc(-c3ccc(C4CC4)nc3)cc2C1 [Compound 197, 3-(6-cyclopropylpyridin-3-yl)-6-(7-methyl-[1,2,4]triazolo[4,3-b]pyridazin-6-yl)-5,6,7,8-tetrahydro-1,6-naphthyridine] | 82 | 176
Cc1ccc(-c2cnc3c(c2)CN(c2nn4cnnc4cc2C)CC3)cn1 [Compound 198, 6-(7-methyl-[1,2,4]triazolo[4,3-b]pyridazin-6-yl)-3-(6-methylpyridin-3-yl)-5,6,7,8-tetrahydro-1,6-naphthyridine] | 93 | 206
Cc1cc2nncn2nc1N1CCc2ncc(-c3cccnc3)cc2C1 [Compound 199, 6-(7-methyl-[1,2,4]triazolo[4,3-b]pyridazin-6-yl)-3-(pyridin-3-yl)-5,6,7,8-tetrahydro-1,6-naphthyridine] | 84 | 334
Cc1c(N2CCc3ncc(C4CC4)cc3C2)nn2cnnc2c1C [Compound 200, 3-cyclopropyl-6-(7,8-dimethyl-[1,2,4]triazolo[4,3-b]pyridazin-6-yl)-5,6,7,8-tetrahydro-1,6-naphthyridine] | 93 | 53

The remaining compounds from weak to strong by EC50, led by results:

Emax at 30 µM [%] | EC50 [nM] | SMILES
42 | 1100 | Cc1c(N2CCc3ncc(-c4cccnc4OC(C)C)cc3C2)nn2cnnc2c1C [Compound 182, 6-(7,8-dimethyl-[1,2,4]triazolo[4,3-b]pyridazin-6-yl)-3-(2-isopropoxypyridin-3-yl)-5,6,7,8-tetrahydro-1,6-naphthyridine]
93 | 695 | Cc1c(N2CCc3ncc(-c4cccnc4F)cc3C2)nn2cnnc2c1C [Compound 183, 6-(7,8-dimethyl-[1,2,4]triazolo[4,3-b]pyridazin-6-yl)-3-(2-fluoropyridin-3-yl)-5,6,7,8-tetrahydro-1,6-naphthyridine]
69 | 523 | Cc1cc2nccn2nc1N1CCc2ncc(C(F)(F)F)cc2C1 [Compound 188, 6-(7-methylimidazo[1,2-b]pyridazin-6-yl)-3-(trifluoromethyl)-5,6,7,8-tetrahydro-1,6-naphthyridine]
88 | 292 | Cc1ncc(-c2cnc3c(c2)CN(c2nn4cnnc4cc2C)CC3)s1 [Compound 194, 2-methyl-5-(6-(7-methyl-[1,2,4]triazolo[4,3-b]pyridazin-6-yl)-5,6,7,8-tetrahydro-1,6-naphthyridin-3-yl)thiazole]
89 | 200 | Cc1nc(C)c(-c2cnc3c(c2)CN(c2nn4cnnc4cc2C)CC3)s1 [Compound 195, 2,4-dimethyl-5-(6-(7-methyl-[1,2,4]triazolo[4,3-b]pyridazin-6-yl)-5,6,7,8-tetrahydro-1,6-naphthyridin-3-yl)thiazole]
100 | 142 | Cc1c(N2CCc3ncc(-c4ccc(N5CCOCC5)nc4)cc3C2)nn2cnnc2c1C [Compound 186, 4-(5-(6-(7,8-dimethyl-[1,2,4]triazolo[4,3-b]pyridazin-6-yl)-5,6,7,8-tetrahydro-1,6-naphthyridin-3-yl)pyridin-2-yl)morpholine]
93 | 94 | Cc1cc2nncn2nc1N1CCc2ncc(-c3ccns3)cc2C1 [Compound 193, 5-(6-(7-methyl-[1,2,4]triazolo[4,3-b]pyridazin-6-yl)-5,6,7,8-tetrahydro-1,6-naphthyridin-3-yl)isothiazole]
94 | 63 | Cc1c(N2CCc3ncc(Nc4ccnn4C)cc3C2)nn2c(C(F)(F)F)nnc2c1C [Compound 201, 6-(7,8-dimethyl-3-(trifluoromethyl)-[1,2,4]triazolo[4,3-b]pyridazin-6-yl)-N-(1-methyl-1H-pyrazol-5-yl)-5,6,7,8-tetrahydro-1,6-naphthyridin-3-amine]

Source: patent US20250002507A1, “7,8-DIHYDRO-5H-1,6-NAPHTHYRIDINE DERIVATIVES AS POSITIVE ALLOSTERIC MODULATORS OF THE MUSCARINIC ACETYLCHOLINE RECEPTOR M4 FOR TREATING NEUROLOGICAL AND PSYCHIATRIC DISORDERS” (Vanderbilt University, priority 2021, published 2025)
